Measurements reported in patent US20240360179A1, “STAPLED PEPTIDES AND METHODS THEREOF” (FOG PHARMACEUTICALS, INC., priority 2021, published 2024).

Tested on: COLO320DM cells
Test: COLO320DM proliferation assay (CellTiter-Glo)
Type: cell-based, human
Settings: read-out: COLO320DM Proliferation Abs IC50
Outline: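 COLO320DM cells, 250 cells/well in RPMI-1640 with 4% FBS, attached 18-22 h, then exposed 96 h at 37 °C, 5% CO2 to 7-point 1/2 dilutions from 20 uM to 313 nM. Viability by CellTiter-Glo luminescence; IC50 derived from the dose curve.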

| Substance | IC50 [µM] |
| --- | --- |
| Ac-PL3-Asp-Npg-B5-Asp-3COOHF-Aib-Ala-Phe-Lys*3-PyrS2-3Thi-BztA-hGlnR*3-NH2 [I-786] | ≤ 10 |
| Ac-PL3-Asp-Npg-B5-Asp-3COOHF-Aib-Ala-Phe-Lys*3-PyrS2-Phe-34ClF-GlnR*3-NH2 [I-871] | ≤ 10 |
| Ac-PL3-Asp-Npg-B5-Asp-3COOHF-Aib-Ala-Phe-Lys*3-PyrS2-Phe-34ClF-GlnR*3-Pro-NH2 [I-872] | ≤ 10 |
| Ac-PL3-Asp-Npg-B5-Asp-3COOHF-Aib-Ala-Phe-Lys*3-PyrS2-Phe-34MeF-GlnR*3-NH2 [I-1103] | ≤ 10 |
| Ac-PL3-Asp-Npg-B5-Asp-3COOHF-Aib-Ala-Phe-Lys*3-PyrS2-[2PyAc]2NH2F-BztA-GlnR*3-Ala-NH2 [I-1740] | ≤ 10 |
| Ac-PL3-Asp-Npg-B5-Asp-3COOHF-Aib-Ala-Phe-Lys*3-PyrS2-[2PyzCO]2NH2F-BztA-GlnR*3-Ala-NH2 [I-1755] | > 20 |
| Ac-PL3-Asp-Npg-B5-Asp-3COOHF-Aib-Ala-Phe-Lys*3-PyrS2-[3PyPrpc]2NH2F-BztA-GlnR*3-Ala-NH2 [I-1742] | 10 to 20 |
| Ac-PL3-Asp-Npg-B5-Asp-3COOHF-Aib-Ala-Phe-Lys*3-PyrS2-[4PyPrpc]2NH2F-BztA-GlnR*3-Ala-NH2 [I-1743] | 10 to 20 |
| Ac-PL3-Asp-Npg-B5-Asp-3COOHF-Aib-Ala-Phe-Lys*3-PyrS2-[15PyraPy]2NH2F-BztA-GlnR*3-Ala-NH2 [I-1752] | ≤ 10 |
| Ac-PL3-Asp-Npg-B5-Asp-3COOHF-Aib-Ala-Phe-Lys*3-PyrS2-[MorphAc]2NH2F-BztA-GlnR*3-Ala-NH2 [I-1753] | > 20 |
| Ac-PL3-Asp-Npg-B5-Asp-3COOHF-Aib-Ala-Phe-Lys*3-PyrS2-[Nic]2NH2F-BztA-GlnR*3-Ala-NH2 [I-1754] | > 20 |
| Ac-PL3-Asp-Npg-B5-Asp-3COOHF-Aib-Ala-Phe-Lys*3-PyrS2-hCbA-BztA-GlnR*3-Val-Glu-Ala-NH2 [I-1345] | ≤ 10 |
| Ac-PL3-Asp-Npg-B5-Asp-3COOHF-Aib-Ala-Phe-Lys*3-PyrS2-hCha-34ClF-GlnR*3-Val-Glu-Ala-NH2 [I-1350] | ≤ 10 |
| Ac-PL3-Asp-Npg-B5-Asp-3COOHF-Aib-Ala-Phe-Lys*3-PyrS2-hCha-BztA-GlnR*3-Val-Glu-Ala-NH2 [I-1347] | > 20 |
| Ac-PL3-Asp-Npg-B5-Asp-3COOHF-Aib-Ala-Phe-Lys*3-PyrS2-hCypA-34ClF-GlnR*3-Val-Glu-Ala-NH2 [I-1349] | ≤ 10 |
| Ac-PL3-Asp-Npg-B5-Asp-3COOHF-Aib-Ala-Phe-Lys*3-PyrS2-hCypA-BztA-GlnR*3-Val-Glu-Ala-NH2 [I-1346] | ≤ 10 |
| Ac-PL3-Asp-Npg-B5-Asp-3COOHF-Aib-Ala-Phe-dDab*3-PyrS2-3Thi-BztA-GlnR*3-Ala-Ala-Ala-Ala-Ala-NH2 [I-790] | ≤ 10 |
| Me2NAc-PL3-Asp-Npg-B5-Asp-3COOHF-Aib-Ala-Phe-Lys*3-PyrS2-3Thi-BztA-GlnR*3-Ala-NH2 [I-1078] | > 20 |

Target: T1, full-length B-Catenin (Uniprot ID P35222) (Homo sapiens, UniProt P35222)
T1 construct: 10 nM full-length B-Catenin (Uniprot ID P35222)
T1 sequence (P35222 1-781): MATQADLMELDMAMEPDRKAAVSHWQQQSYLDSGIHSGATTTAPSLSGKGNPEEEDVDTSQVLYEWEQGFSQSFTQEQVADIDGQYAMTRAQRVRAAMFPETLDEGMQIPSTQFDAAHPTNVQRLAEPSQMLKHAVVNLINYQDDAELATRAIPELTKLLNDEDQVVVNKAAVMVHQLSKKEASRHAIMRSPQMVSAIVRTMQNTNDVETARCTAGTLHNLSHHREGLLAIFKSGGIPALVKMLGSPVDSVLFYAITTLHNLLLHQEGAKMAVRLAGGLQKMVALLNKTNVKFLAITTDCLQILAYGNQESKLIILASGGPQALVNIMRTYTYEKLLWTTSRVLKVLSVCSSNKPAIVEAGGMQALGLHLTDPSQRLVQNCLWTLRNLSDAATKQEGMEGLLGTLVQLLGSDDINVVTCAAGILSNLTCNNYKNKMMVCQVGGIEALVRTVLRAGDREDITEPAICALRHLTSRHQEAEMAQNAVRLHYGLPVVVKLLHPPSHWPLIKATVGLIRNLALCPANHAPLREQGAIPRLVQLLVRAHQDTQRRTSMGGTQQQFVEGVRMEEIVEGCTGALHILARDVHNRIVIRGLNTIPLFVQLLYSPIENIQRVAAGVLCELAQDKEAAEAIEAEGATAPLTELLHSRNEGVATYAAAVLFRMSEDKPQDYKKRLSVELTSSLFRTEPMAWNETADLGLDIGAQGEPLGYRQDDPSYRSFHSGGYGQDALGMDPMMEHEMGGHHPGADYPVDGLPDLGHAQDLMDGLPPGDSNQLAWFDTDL
Test: not given
Type: binding
Settings: competition fluorescence polarization; read-out: beta-Catenin FP IC50

| Substance | IC50 [µM] |
| --- | --- |
| 4pentenyl-MePro-Asp-B5-Ala-Asp-3COOHF-Ala-Ala-Phe-PyrS2-Lys*3-3Thi-BztA-Ala-GlnR*3-NH2 [I-932] | > 1 |
| 4pentenyl-MePro-Asp-B5-Ala-Asp-3COOHF-Ala-Ala-Phe-PyrS2-Lys*3-3Thi-BztA-Ala-GlnR*3-NH2 [I-993] | 0.75 to 1 |
| 4pentenyl-ThioPro-Asp-B5-Ala-Asp-3COOHF-Ala-Ala-Phe-PyrS2-Lys*3-3Thi-BztA-Ala-GlnR*3-NH2 [I-933] | > 1 |

Same assay, conditions: read-out: beta-Catenin FP IC50

| Substance | IC50 [µM] |
| --- | --- |
| Ac-PL3-Asp-Cha-B5-Asp-3COOHF-Ala-Ala-Phe-Lys*3-PyrS2-2F3MeF-BztA-GlnR*3-Ala-NH2 [I-98] | < 0.05 |
| Ac-PL3-Asp-Leu-B5-Asp-3COOHF-Ala-Ala-Phe-GlnR*3-PyrS2-3Thi-BztA-Lys*3-NH2 [I-16] | < 0.05 |
| Ac-PL3-Asp-Leu-B5-Asp-3COOHF-Ala-Ala-Phe-Lys*3-PyrS2-3Thi-BztA-GlnR*3-NH2 [I-12] | < 0.05 |
| Ac-PL3-Asp-Leu-B5-Asp-3COOHF-Ala-Ala-Phe-dLys*3-PyrS2-3Thi-BztA-GlnR*3-NH2 [I-10] | < 0.05 |
| Ac-PL3-Asp-Npg-B5-Asp-3COOHF-Acp-Ala-Phe-Lys*3-PyrS2-3Thi-BztA-GlnR*3-Ala-NH2 [I-385] | < 0.05 |
| Ac-PL3-Asp-Npg-B5-Asp-3COOHF-Aib-Ala-Phe-Lys*3-PyrS2-3Thi-BztA-GlnR*3-Leu-Glu-Ala-NH2 [I-495] | < 0.05 |
| Ac-PL3-Asp-Npg-B5-Asp-3COOHF-Aib-Ala-Phe-Lys*3-PyrS2-3Thi-BztA-GlnR*3-Leu-Ser-Ala-NH2 [I-497] | < 0.05 |
| Ac-PL3-Asp-Npg-B5-Asp-3COOHF-Aib-Ala-Phe-Lys*3-PyrS2-3Thi-BztA-GlnR*3-Leu-Thr-Ala-NH2 [I-499] | < 0.05 |
| Ac-PL3-Asp-Npg-B5-Asp-3COOHF-Aib-Ala-Phe-Lys*3-PyrS2-3Thi-BztA-GlnR*3-Leu-aThr-Ala-NH2 [I-501] | < 0.05 |
| Ac-PL3-Asp-Npg-B5-Asp-3COOHF-Aib-Ala-Phe-Lys*3-PyrS2-3Thi-BztA-GlnR*3-Thr-Aib-NH2 [I-412] | < 0.05 |
| Ac-PL3-Asp-Npg-B5-Asp-3COOHF-Aib-Ala-Phe-Lys*3-PyrS2-3Thi-BztA-GlnR*3-Val-Aib-NH2 [I-408] | < 0.05 |
| Ac-PL3-Asp-Npg-B5-Asp-3COOHF-Aib-Ala-Phe-Lys*3-PyrS2-3Thi-BztA-GlnR*3-dAla-Ser-NH2 [I-461] | < 0.05 |
| Ac-PL3-Asp-Npg-B5-Asp-3COOHF-Aib-Ala-Phe-Lys*3-PyrS2-3Thi-BztA-GlnR*3-dLeu-Ser-Leu-NH2 [I-468] | < 0.05 |
| Ac-PL3-Asp-Npg-B5-Asp-3COOHF-Aib-Ala-Phe-Lys*3-PyrS2-Phe-2NapA-GlnR*3-Ala-NH2 [I-484] | < 0.05 |
| Ac-PL3-Asp-Npg-B5-Asp-3COOHF-Aib-Ala-Phe-Lys*3-PyrS2-Phe-BztA-GlnR*3-Ala-NH2 [I-280] | < 0.05 |
| Ac-PL3-Asp-Npg-B5-Asp-3COOHF-Aib-Ala-Phe-Lys*3-PyrS2-nLeu-BztA-GlnR*3-Ala-NH2 [I-272] | < 0.05 |
| Ac-PL3-Asp-Npg-B5-Asp-3COOHF-Aib-Ala-Phe-TriAzLys*3-PyrS2-Phe-BztA-sAbu*3-Ala-NH2 [I-420] | < 0.05 |
| Ac-PL3-Asp-Npg-B5-Asp-3COOHF-Aib-Ala-nLeu-Lys*3-PyrS2-Phe-34ClF-GlnR*3-Ala-NH2 [I-480] | < 0.05 |
| Ac-PL3-Asp-Npg-B5-Asp-3COOHF-Cha-Ala-Phe-Lys*3-PyrS2-2F3MeF-BztA-GlnR*3-Ala-NH2 [I-102] | < 0.05 |
| Ac-PL3-Asp-Npg-B5-Asp-3COOHF-CyLeu-Ala-Phe-Lys*3-PyrS2-3Thi-BztA-GlnR*3-Ala-NH2 [I-383] | < 0.05 |
| Ac-PL3-Asp-Npg-B5-Asp-3COOHF-DaMeS-Ala-Phe-Lys*3-PyrS2-3Thi-BztA-GlnR*3-Ala-NH2 [I-437] | < 0.05 |
| Ac-PL3-Asp-Npg-B5-Asp-3COOHF-aMeDF-Ala-Phe-Lys*3-PyrS2-3Thi-BztA-GlnR*3-Ala-NH2 [I-457] | < 0.05 |

Same assay, conditions: read-out: beta-catenin TCF4 competition FP assay IC50

| Substance | IC50 [µM] |
| --- | --- |
| Ac-PL3-Asp-Npg-B5-Asp-3COOHF-Aib-Ala-Phe-[oXyl]Cys-PyrS2-2F3MeF-BztA-Cys-Ala-NH2 [I-376] | 0.22 |
| Ac-PL3-Asp-Npg-B5-Asp-3COOHF-Aib-Ala-Phe-[pXyl]Cys-PyrS2-2F3MeF-BztA-Cys-Ala-NH2 [I-377] | 0.093 |
